Measured values taken from PubChem BioAssay AID1963978 (Molecular Pharmacology Branch, DTP, NCI, 2024).
“And” between values parts separate entries of the source, which are not always exact repeats. Identical values can stand only once.

Test system: 616215-338-R-J1-PDC spheroids with HUVEC/MSC, viability
Test: Anticancer human tumor 616215-338-R-J1-PDC patient-derived colon adenocarcinoma cell line growth inhibition [PI3K]
Settings: for viability, T/C: stronger effect = lower value; active = viability on the fitted dose curve at most 10% of control; inactive = the rest
Outline: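 Combination activity was assessed by viability in multicellular tumor spheroids carrying HUVEC and MSC components. Agents were tested with PI3K inhibitors from a Cmax-based top dose (or 10 microM) downward in half-log increments.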

[1] = curve of first compound, second compound 0.00316 µM
[2] = curve of first compound, second compound 0.01 µM
[3] = curve of first compound, second compound 0.0316 µM
[4] = curve of first compound, second compound 0.1 µM
[5] = curve of first compound, second compound 0.316 µM
[6] = curve of first compound, second compound 1 µM
[7] = second compound 0.00316 µM, first compound 0.00316 µM
[8] = second compound 0.00316 µM, first compound 0.01 µM
[9] = second compound 0.00316 µM, first compound 0.0316 µM
[10] = second compound 0.00316 µM, first compound 0.1 µM
[11] = second compound 0.00316 µM, first compound 0.316 µM
[12] = second compound 0.00316 µM, first compound 1 µM
[13] = second compound 0.01 µM, first compound 0.00316 µM
[14] = second compound 0.01 µM, first compound 0.01 µM
[15] = second compound 0.01 µM, first compound 0.0316 µM
[16] = second compound 0.01 µM, first compound 0.1 µM
[17] = second compound 0.01 µM, first compound 0.316 µM
[18] = second compound 0.01 µM, first compound 1 µM
[19] = second compound 0.0316 µM, first compound 0.00316 µM
[20] = second compound 0.0316 µM, first compound 0.01 µM
[21] = second compound 0.0316 µM, first compound 0.0316 µM
[22] = second compound 0.0316 µM, first compound 0.1 µM
[23] = second compound 0.0316 µM, first compound 0.316 µM
[24] = second compound 0.0316 µM, first compound 1 µM
[25] = second compound 0.1 µM, first compound 0.00316 µM
[26] = second compound 0.1 µM, first compound 0.01 µM
[27] = second compound 0.1 µM, first compound 0.0316 µM
[28] = second compound 0.1 µM, first compound 0.1 µM
[29] = second compound 0.1 µM, first compound 0.316 µM
[30] = second compound 0.1 µM, first compound 1 µM
[31] = second compound 0.316 µM, first compound 0.00316 µM
[32] = second compound 0.316 µM, first compound 0.01 µM
[33] = second compound 0.316 µM, first compound 0.0316 µM
[34] = second compound 0.316 µM, first compound 0.1 µM
[35] = second compound 0.316 µM, first compound 0.316 µM
[36] = second compound 0.316 µM, first compound 1 µM
[37] = second compound 1 µM, first compound 0.00316 µM
[38] = second compound 1 µM, first compound 0.01 µM
[39] = second compound 1 µM, first compound 0.0316 µM
[40] = second compound 1 µM, first compound 0.1 µM
[41] = second compound 1 µM, first compound 0.316 µM
[42] = second compound 1 µM, first compound 1 µM
[43] = second compound 0.0316 µM, first compound 0.000316 µM
[44] = second compound 0.0316 µM, first compound 0.001 µM
[45] = second compound 0.1 µM, first compound 0.000316 µM
[46] = second compound 0.1 µM, first compound 0.001 µM
[47] = second compound 0.316 µM, first compound 0.000316 µM
[48] = second compound 0.316 µM, first compound 0.001 µM
[49] = second compound 1 µM, first compound 0.000316 µM
[50] = second compound 1 µM, first compound 0.001 µM
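Note: spheroids exposed to agents for seven days before the viability read.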

CCN1CCN(Cc2ccc(Nc3ncc(F)c(-c4cc(F)c5nc(C)n(C(C)C)c5c4)n3)nc2)CC1 + CC(Nc1ccc2c(c1)OCCn1cc(N3C(=O)OCC3C(F)F)nc1-2)C(N)=O
inactive: viability, T/C [7] 93.8% | viability, T/C [8] 100% | viability, T/C [9] 96.3% | viability, T/C [10] 98.7% | viability, T/C [11] 131% | viability, T/C [12] 111% | viability, T/C [13] 94.9% | viability, T/C [14] 102% | viability, T/C [15] 98.5% | viability, T/C [16] 102% | viability, T/C [17] 113% | viability, T/C [18] 102% | viability, T/C [19] 103% | viability, T/C [20] 111% | viability, T/C [21] 99.8% | viability, T/C [22] 107% | viability, T/C [23] 112% | viability, T/C [24] 96.6% | viability, T/C [25] 104% | viability, T/C [26] 94.3% | viability, T/C [27] 99.3% | viability, T/C [28] 108% | viability, T/C [29] 107% | viability, T/C [30] 74.5% | viability, T/C [31] 102% | viability, T/C [32] 110% | viability, T/C [33] 105% | viability, T/C [34] 97.8% | viability, T/C [35] 96.1% | viability, T/C [36] 57.6% | viability, T/C [37] 113% | viability, T/C [38] 90.9% | viability, T/C [39] 84.6% | viability, T/C [40] 85.5% | viability, T/C [41] 73.7% | viability, T/C [42] 49.6%
> 1000 nM: IC50 [1] | IC50 [2] | IC50 [3] | IC50 [4] | IC50 [5] | IC50 [6]

COc1c(OCCCN2CCOCC2)ccc2c3n(c(=NC(=O)c4cnc(N)nc4)nc12)CCN3
279 nM [middle of 7 runs]: IC50 (compound alone, run of 05/09/2023)
inactive: viability, T/C (compound 0.00316 µM) 93.2% [middle of 8 runs] | viability, T/C (compound 0.01 µM) 96.5% [middle of 8 runs] | viability, T/C (compound 0.0316 µM) 96.2% [middle of 8 runs] | viability, T/C (compound 0.1 µM) 91.2% [middle of 8 runs] | viability, T/C (compound 0.316 µM) 45% [middle of 8 runs] | viability, T/C (compound 1 µM) 26.3% [middle of 8 runs]

C=CC(=O)N1CCN(c2nc(=O)n(-c3c(C)ccnc3C(C)C)c3nc(-c4c(O)cccc4F)c(F)cc23)C(C)C1 (stereo not given) + COc1c(OCCCN2CCOCC2)ccc2c3n(c(=NC(=O)c4cnc(N)nc4)nc12)CCN3
> 10000 nM: IC50 [1] | IC50 [2] | IC50 [3] | IC50 [4]
< 31.6 nM: IC50 [5] | IC50 [6]
inactive: viability, T/C [9] 90.8% | viability, T/C [10] 87.9% | viability, T/C [11] 92.2% | viability, T/C [12] 96.6% | viability, T/C (second compound 0.00316 µM, first compound 3.16 µM) 95.2% | viability, T/C (second compound 0.00316 µM, first compound 10 µM) 80.1% | viability, T/C [15] 110% | viability, T/C [16] 92.2% | viability, T/C [17] 97.8% | viability, T/C [18] 101% | viability, T/C (second compound 0.01 µM, first compound 3.16 µM) 111% | viability, T/C (second compound 0.01 µM, first compound 10 µM) 78% | viability, T/C [21] 106% | viability, T/C [22] 85.9% | viability, T/C [23] 99.5% | viability, T/C [24] 110% | viability, T/C (second compound 0.0316 µM, first compound 3.16 µM) 87.8% | viability, T/C (second compound 0.0316 µM, first compound 10 µM) 76.2% | viability, T/C [27] 91.7% | viability, T/C [28] 96.8% | viability, T/C [29] 93.4% | viability, T/C [30] 98.9% | viability, T/C (second compound 0.1 µM, first compound 3.16 µM) 90.2% | viability, T/C (second compound 0.1 µM, first compound 10 µM) 71.7% | viability, T/C [33] 52.7% | viability, T/C [34] 36.7% | viability, T/C [35] 46.1% | viability, T/C [36] 47.1% | viability, T/C (second compound 0.316 µM, first compound 3.16 µM) 47.1% | viability, T/C (second compound 0.316 µM, first compound 10 µM) 36.6% | viability, T/C [39] 23.4% | viability, T/C [40] 23.2% | viability, T/C [41] 29.8% | viability, T/C [42] 24.4% | viability, T/C (second compound 1 µM, first compound 3.16 µM) 25.4% | viability, T/C (second compound 1 µM, first compound 10 µM) 21%

Cn1ncnc1[C@H]1c2n[nH]c(=O)c3cc(F)cc(c23)N[C@@H]1c1ccc(F)cc1 + CC(Nc1ccc2c(c1)OCCn1cc(N3C(=O)OCC3C(F)F)nc1-2)C(N)=O
inactive: viability, T/C (second compound 0.00316 µM, first compound 0.000316 µM) 100% | viability, T/C (second compound 0.00316 µM, first compound 0.001 µM) 90.8% | viability, T/C [7] 98.3% | viability, T/C [8] 103% | viability, T/C [9] 88.8% | viability, T/C [10] 98.4% | viability, T/C (second compound 0.01 µM, first compound 0.000316 µM) 85.9% | viability, T/C (second compound 0.01 µM, first compound 0.001 µM) 90.6% | viability, T/C [13] 91.8% | viability, T/C [14] 84% | viability, T/C [15] 101% | viability, T/C [16] 90.5% | viability, T/C [43] 102% | viability, T/C [44] 92.7% | viability, T/C [19] 89.8% | viability, T/C [20] 97.6% | viability, T/C [21] 98.5% | viability, T/C [22] 93.2% | viability, T/C [45] 97.1% | viability, T/C [46] 92.4% | viability, T/C [25] 104% | viability, T/C [26] 103% | viability, T/C [27] 94.8% | viability, T/C [28] 88.9% | viability, T/C [47] 112% | viability, T/C [48] 90.6% | viability, T/C [31] 93.5% | viability, T/C [32] 99.4% | viability, T/C [33] 90% | viability, T/C [34] 88.7% | viability, T/C [49] 96.2% | viability, T/C [50] 99.3% | viability, T/C [37] 116% | viability, T/C [38] 89.6% | viability, T/C [39] 87.7% | viability, T/C [40] 76.2%
> 100 nM: IC50 [1] | IC50 [2] | IC50 [3] | IC50 [4] | IC50 [5] | IC50 [6]

CCN1CCN(Cc2ccc(Nc3ncc(F)c(-c4cc(F)c5nc(C)n(C(C)C)c5c4)n3)nc2)CC1
inactive: viability, T/C (compound 0.00316 µM) 98.2% [middle of 4 runs] | viability, T/C (compound 0.01 µM) 92.2% [middle of 4 runs] | viability, T/C (compound 0.0316 µM) 97.4% [middle of 4 runs] | viability, T/C (compound 0.1 µM) 114% and 104% (2×) and 116%
> 1000 nM: IC50 (curve of compound)

CC(C)n1nc(-c2ccc3oc(N)nc3c2)c2c(N)ncnc21 + Cc1nc(NC(=O)N2CCCC2C(N)=O)sc1-c1ccnc(C(C)(C)C(F)(F)F)c1
> 100 nM: IC50 [3] | IC50 [4] | IC50 [5] | IC50 [6] | IC50 (curve of first compound, second compound 3.16 µM)
53.2 nM: IC50 (curve of first compound, second compound 10 µM)
inactive: viability, T/C [43] 100% | viability, T/C [44] 88.7% | viability, T/C [19] 93.9% | viability, T/C [20] 97.2% | viability, T/C [21] 105% | viability, T/C [22] 93.2% | viability, T/C [45] 98.5% | viability, T/C [46] 106% | viability, T/C [25] 96.8% | viability, T/C [26] 90.8% | viability, T/C [27] 114% | viability, T/C [28] 87.1% | viability, T/C [47] 91.2% | viability, T/C [48] 91.2% | viability, T/C [31] 91.4% | viability, T/C [32] 96.2% | viability, T/C [33] 111% | viability, T/C [34] 82.1% | viability, T/C [49] 102% | viability, T/C [50] 100% | viability, T/C [37] 102% | viability, T/C [38] 99.5% | viability, T/C [39] 106% | viability, T/C [40] 79.1% | viability, T/C (second compound 3.16 µM, first compound 0.000316 µM) 99.7% | viability, T/C (second compound 3.16 µM, first compound 0.001 µM) 102% | viability, T/C (second compound 3.16 µM, first compound 0.00316 µM) 91% | viability, T/C (second compound 3.16 µM, first compound 0.01 µM) 95.4% | viability, T/C (second compound 3.16 µM, first compound 0.0316 µM) 83.8% | viability, T/C (second compound 3.16 µM, first compound 0.1 µM) 56.7% | viability, T/C (second compound 10 µM, first compound 0.000316 µM) 94.4% | viability, T/C (second compound 10 µM, first compound 0.001 µM) 85.9% | viability, T/C (second compound 10 µM, first compound 0.00316 µM) 86.2% | viability, T/C (second compound 10 µM, first compound 0.01 µM) 80.2% | viability, T/C (second compound 10 µM, first compound 0.0316 µM) 56.7% | viability, T/C (second compound 10 µM, first compound 0.1 µM) 41.4%
